Assay results from patent publication US6686382B2, “Sulfonamides and derivatives thereof that modulate the activity of endothelin” (Encysive Pharmaceuticals Inc., priority 1999, dated 2004).
Read-outs that look alike come from different tables or passages of the source. Each block holds one molecule with its values, some of them ahead of it.

What was measured:
isolated vascular strips = settings: read-out: EC50, contractile agent; cited from earlier work
human ETA receptors = target: T1, human ETA receptors (Homo sapiens, UniProt P25101); experiment: Endothelin binding inhibition, Binding Test #1: inhibition of binding to ETA receptors (TE 671 cell membranes); settings: relative to N-(4-chloro-3-methyl-5-isoxazolyl)-2-{[3,4-(methylenedioxy)-6-methylphenyl)acetyl]-thiophene-3-sulfonamide (= 1.0)
T1 construct: endogenous in cells; host or cells: TE 671 cells (ATCC HTB 139), membrane preparation
T1 sequence (P25101 21-427): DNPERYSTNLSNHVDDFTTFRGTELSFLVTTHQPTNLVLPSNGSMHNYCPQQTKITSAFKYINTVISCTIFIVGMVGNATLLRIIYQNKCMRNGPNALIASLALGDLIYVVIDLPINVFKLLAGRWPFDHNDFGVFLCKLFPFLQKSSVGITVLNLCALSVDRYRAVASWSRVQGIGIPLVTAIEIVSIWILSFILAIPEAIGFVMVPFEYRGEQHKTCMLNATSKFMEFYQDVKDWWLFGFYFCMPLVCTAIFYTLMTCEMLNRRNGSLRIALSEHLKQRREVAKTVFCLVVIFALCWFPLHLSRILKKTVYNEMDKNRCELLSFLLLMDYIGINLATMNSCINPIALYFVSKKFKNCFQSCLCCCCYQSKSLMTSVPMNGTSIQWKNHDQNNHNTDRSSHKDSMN
From the text: (§1) Compounds that are potential endothelin antagonists are identified by testing their ability to compete with ^125I-labeled ET-1 for binding to human ETA receptors or ETB receptors present on isolated cell membranes. The effectiveness of the test compound as an antagonist or agonist of the biological tissue response of endothelin can also be assessed by measuring the effect on endothelin induced contraction of isolated rat thoracic aortic rings. The ability of the compounds to act as antagonists or agonists for ETB receptors can be assess by testing the ability of the compounds are to inhibit endothelin-1 induced prostacyclin release from cultured bovine aortic endothelial cells.
(§2) A. Endothelin Binding Inhibition—Binding Test #1: Inhibition of Binding to ETA Receptors
(§3) TE 671 cells (ATCC Accession No. HTB 139) express ETA receptors. These cells were grown to confluence in T-175 flasks. Cells from multiple flasks were collected by scraping, pooled and centrifugedfor 10 min at 190×g. The cells were resuspended in phosphate buffered saline (PBS) containing 10 mM EDTA using a Tenbroeck homogenizer. The suspension was centrifuged at 4° C. at 57,800×g for 15 min, the pellet was resuspended in 5 ml of buffer A (5 mM HEPES buffer, pH 7.4 containing aprotinin (100 KIU/ml)) and then frozen and thawed once. 5 ml of Buffer B (5 mM HEPES Buffer, pH 7.4 containing 10 mM MnCl2 and 0.001% deoxyribonuclease Type 1) was added, the suspension mixed by inversion and then incubated at 37° C. for 30 minutes. The mixture was centrifuged at 57,800×g as described above, the pellet washed twice with buffer A and then resuspended in buffer C (30 mM HEPES buffer, pH 7.4 containing aprotinin (100 KIU/ml) to give a final protein concentration of 2 mg/ml and stored at −70° C. until use.
(§4) The membrane suspension was diluted with binding buffer (30 mM HEPES buffer, pH 7.4 containing 150 mM NaCl, 5 mM MgCl2, 0.5% Bacitracin) to a concentration of 8 μg/50 μl. ^125I-endothelin-1 (3,000 cpm, […]) was added to 50 μL of either: (A) endothelin-1 (for non specific binding) to give a final concentration 80 nM); (B) binding buffer (for total binding); or (C) a test compound (final concentration 1 nM to 100 μM). The membrane suspension (50 μL), containing up to 8 μg of membrane protein, was added to each of (A), (B), or (C). Mixtures were shaken, and incubated at 4° C. for 16-18 hours, and then centrifuged at 4° C. for 25 min at 2,500×g. Alternatively, the incubation was conducted at 24° C. […] This, must be kept in mind when comparing IC50 concentrations among compounds provided herein.
(§5) The supernatant, containing unbound radioactivity, was decanted and the pellet counted on a Genesys multiwell gamma counter. The degree of inhibition of binding (D) was calculated according to the following equation: [formula]
Each test was generally performed in triplicate.

[1] = system: ETA receptors and ETB receptors; experiment: Endothelin binding inhibition, ETA (TE 671) and ETB (transfected COS7) receptors: selectivity; design: species or system human; settings: antagonism of ETA receptors over ETB receptors
From the text: as §1, §2, §3, §4, §5
B. Endothelin Binding Inhibition—Binding Test #2: Inhibition of Binding to ETB Receptors
COS7 cells were transfected with DNA encoding the ETB receptor, The resulting cells, which express the human ETB receptor, were grown to confluence in T-150 flasks. Membrane was prepared as described above. The binding assay was performed as described above using the membrane preparation diluted with binding buffer to a concentration of 1 μg/50 μl.
Briefly, the COS7 cells, described above, that had been transfected with DNA encoding the ETB receptor and express the human ETB receptor on their surfaces were grown to confluence in T-175 flasks. […]

[2] = Pharmacokinetic properties (oral availability, elimination half-life, Cmax); type: in vivo
From the text: As used herein, bioavailability or oral availability refers to the rate and extent of absorption. Methods for determining bioavailability or oral availability are well known to those of skill in the art. For example, bioavailability or oral availability of any of the compounds described herein can be determined empirically by administration of the compound to an animal, followed by taking blood samples over time and measuring the blood concentration of the compound. In vivo half life (t1/2) is defined as the time it takes for the concentration of the compound in the blood to be reduced by one-half. Estimations of the area under the curve for intravenous administration can be used to estimate the area under the curve for oral administration, yielding bioavailability data. See, e.g., Milo Gibal (1991) Biopharmaceutics and Pharmacology, 4th edition (Lea and Sediger).

ETA receptor = settings: read-out: IC50, inhibition of 125I-labelled endothelin-1 binding, cited from earlier work
ETB receptors = settings: concentrations up to 100 μM; cited from earlier work

Molecule: endothelin-1: potent twenty-one amino acid peptide vasoconstrictor
EC50 (isolated vascular strips): 0.4 nM

ETA ACTIVITY (ETA antagonist activity relative to reference compound) (human ETA receptors): 17.9 | Selectivity (IC50 for ETB/IC50 for ETA) [1]: 119,000 | melting point: 176 to 178 °C | half-life ([2]; blood, read-out: t½ elim. (converted)): 5.3 h | Cmax ([2]; in vivo): 66 µg/mL
Molecule: Cc1cc(C)c(NC(=O)c2sccc2S(=O)(=O)Nc2onc(C)c2Cl)c(-c2ncco2)c1 [Compound 44, 3-{[(4-chloro-3-methyl-5-isoxazolyl)amino]sulfonyl}-N-[2,4-dimethyl-6-(1,3-oxazol-2-yl)phenyl]-2-thiophenecarboxamide]

Molecule: cyclo(D-Glu-L-Ala-allo-D-Ile-L-Leu-D-Trp) [BE-18257B]
IC50 (ETA receptor; aortic smooth muscle): 1400 nM | IC50 (ETA receptor; cultured aortic smooth muscle cells): 500 nM | IC50 (ETA receptor; ventricle membranes): 800 nM | inhibition of binding to receptors in tissues in which ETB receptors predominate (ETB receptors): fails to inhibit binding
